From patent US8846704B2, “Thiopyrimidine-based compounds and uses thereof” (YM Biosciences Austraila Pty Ltd, priority 2007, dated 2014)

Tests used:
BaF3 TELJAK3 cells = molecular target: T1, BaF3 TELJAK3 cells (Homo sapiens, UniProt P52333); experiment: Cellular screening, BaF3 TEL:JAK3 cells, Alamar Blue; type: cell-based; conditions: 40 hr, read-out: BafT_J3 IC50_nM
T1 construct: fused on or other part: TEL (ETV6) N-terminal part, coding nucleotides 1-487, serves as the oligomerising partner; It is fused through a Sal I site to the JAK3 kinase domain and expressed from pTRE2 in BaF3 cells bearing pTET-off; P41212 (Transcription factor ETV6)
T1 sequence (P52333 1-1124): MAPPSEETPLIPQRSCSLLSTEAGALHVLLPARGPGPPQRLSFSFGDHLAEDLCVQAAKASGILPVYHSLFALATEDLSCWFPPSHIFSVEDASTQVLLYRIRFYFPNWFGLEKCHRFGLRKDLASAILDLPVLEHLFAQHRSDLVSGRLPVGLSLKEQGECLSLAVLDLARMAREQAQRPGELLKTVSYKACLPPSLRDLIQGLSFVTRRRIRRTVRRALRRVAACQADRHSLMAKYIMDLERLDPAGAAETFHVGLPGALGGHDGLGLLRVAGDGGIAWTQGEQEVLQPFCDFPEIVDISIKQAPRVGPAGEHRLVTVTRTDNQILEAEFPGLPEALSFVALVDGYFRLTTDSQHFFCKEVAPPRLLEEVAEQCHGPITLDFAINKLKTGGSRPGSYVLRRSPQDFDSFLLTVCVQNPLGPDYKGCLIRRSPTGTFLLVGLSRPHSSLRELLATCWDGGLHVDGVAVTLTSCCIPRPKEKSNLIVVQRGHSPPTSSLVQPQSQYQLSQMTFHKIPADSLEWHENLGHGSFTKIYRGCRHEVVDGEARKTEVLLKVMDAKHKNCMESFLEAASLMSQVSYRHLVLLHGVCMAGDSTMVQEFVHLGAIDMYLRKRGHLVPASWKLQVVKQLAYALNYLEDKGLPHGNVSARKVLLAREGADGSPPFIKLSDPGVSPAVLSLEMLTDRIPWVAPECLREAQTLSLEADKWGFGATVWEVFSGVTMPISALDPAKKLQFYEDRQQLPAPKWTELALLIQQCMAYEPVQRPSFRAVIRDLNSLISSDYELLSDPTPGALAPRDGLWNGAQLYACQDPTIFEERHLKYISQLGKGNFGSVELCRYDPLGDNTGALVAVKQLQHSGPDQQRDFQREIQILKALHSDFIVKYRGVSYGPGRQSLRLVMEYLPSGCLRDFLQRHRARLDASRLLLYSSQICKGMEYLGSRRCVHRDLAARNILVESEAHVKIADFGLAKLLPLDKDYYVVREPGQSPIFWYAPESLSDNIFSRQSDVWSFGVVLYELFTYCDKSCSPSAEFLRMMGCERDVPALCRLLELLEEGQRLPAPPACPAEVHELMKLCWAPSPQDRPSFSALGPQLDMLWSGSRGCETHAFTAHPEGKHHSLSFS
How it was run: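 BaF3 cells carrying pTET-off and a TEL–JAK3 kinase-domain fusion, selected for growth-factor independence, were grown in DMEM with 10% Tet-approved FBS without WEHI 3B medium. Cells were exposed to compounds for 40 h at 37 °C, 5% CO2. Viability was read with Alamar Blue (4–6 h) at 544 nm.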

BaF3 wild-type cells = experiment: Cellular screening, BaF3 wild-type cells, Alamar Blue; type: cell-based; conditions: Mus musculus, 40 hr, read-out: BAF3wt IC50_nM
How it was run: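 Cells were cultured in DMEM with 10% FCS and 10% WEHI 3B conditioned medium, and suspensions were prepared at 1.1× final (50,000–200,000 cells/mL). Compounds from 20 μM dilution plates were added at 10× final and incubated for 40 hr at 37° C, 5% CO2. Alamar Blue was then added for 4–6 hours and read at 544 nm.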

Structure (SMILES)	GI50 (BaF3 TELJAK3 cells) [µM]	IC50 (BaF3 wild-type cells) [µM]
Cc1cnc(Nc2cccc(NS(C)(=O)=O)c2)nc1Sc1ccc(CO)cc1 [Compound 226, N-(3-(4-(4-(hydroxymethyl)phenylthio)-5-methylpyrimidin-2-ylao)phenyl)methanesulfonamide]	< 5	
Cc1cnc(Nc2ccc(N3CCOCC3)cc2)nc1Sc1ccc(C(C#N)N2CCOCC2)cc1 (stereo not drawn) [Compound 223, 2-(4-(5-methyl-2-(4-morpholinophenylao)pyrimidin-4-ylthio)phenyl)-2-morpholinoacetonitrile]	< 20	< 5
Cc1cnc(Nc2ccc(N3CCOCC3)cc2)nc1Sc1cccc(CO)c1 [Compound 212, (3-(5-methyl-2-(4-morpholinophenylao)pyrimidin-4-ylthio)phenyl)methanol]	> 20	> 20
NC(=O)c1ccc(Sc2ccnc(Nc3ccc(N4CCOCC4)cc3)n2)cc1 [Compound 207, 4-(2-(4-morpholinophenylao)pyrimidin-4-ylthio)benzamide]	> 20	
Cc1cnc(Nc2ccc(N3CCOCC3)cc2)nc1Sc1ccc(N2CCSCC2=O)cc1 [Compound 197, 4-(4-(5-methyl-2-(4-morpholinophenylao)pyrimidin-4-ylthio)phenyl)thiomorpholin-3-one]	> 20	> 20
c1cc(Sc2ccc(Cn3cncn3)cc2)nc(Nc2ccc(N3CCOCC3)cc2)n1 [Compound 204, 4-(4-((1H-1,2,4-triazol-1-yl)methyl)phenylthio)-N-(4-morpholinophenyl)pyrimidin-2-ae]	< 20	< 20
Cc1cnc(Nc2ccc(N3CCOCC3)cc2)nc1Sc1ccc(C=O)cc1 [Compound 219, 4-(5-methyl-2-(4-morpholinophenylao)pyrimidin-4-ylthio)benzaldehyde]	< 5	< 5
N#CCc1ccc(Sc2ccnc(Nc3ccc(N4CCOCC4)cc3)n2)cc1 [Compound 210, 2-(4-(2-(4-morpholinophenylao)pyrimidin-4-ylthio)phenyl)acetonitrile]	> 20	> 20
Cc1cnc(Nc2ccc(N3CCOCC3)cc2)nc1Sc1ccc(CO)cc1 [Compound 220, (4-(5-methyl-2-(4-morpholinophenylao)pyrimidin-4-ylthio)phenyl)methanol]	< 5	< 5
Cc1cnc(Nc2ccc(N3CCOCC3)cc2)nc1Sc1ccc(NC(=O)CO)cc1 [Compound 229, 2-hydroxy-N-(4-(5-methyl-2-(4-morpholinophenylao)pyrimidin-4-ylthio)phenyl)acetamide]	< 20	< 20
Cc1cnc(Nc2cccc(S)c2)nc1Sc1ccc(NC(=O)CCl)cc1 [Compound 195, 2-chloro-N-(4-(2-(3-mercaptophenylao)-5-methylpyrimidin-4-ylthio)phenyl)acetamide]	< 20	> 20
N#Cc1ncn(Cc2ccc(Sc3ccnc(Nc4ccc(N5CCOCC5)cc4)n3)cc2)c1N [Compound 202, 5-ao-1-(4-(2-(4-morpholinophenylao)pyrimidin-4-ylthio)benzyl)-1H-imidazole-4-carbonitrile]	< 5	< 20
Cc1cnc(Nc2ccc(N3CCOCC3)cc2)nc1Sc1ccc(C(=O)N2CCCC2)cc1 [Compound 224, (4-(5-methyl-2-(4-morpholinophenylao)pyrimidin-4-ylthio)phenyl)(pyrrolidin-1-yl)methanone]	> 20	< 20
N#Cc1c(N)ncn1Cc1ccc(Sc2ccnc(Nc3ccc(N4CCOCC4)cc3)n2)cc1 [Compound 203, 4-ao-1-(4-(2-(4-morpholinophenylao)pyrimidin-4-ylthio)benzyl)-1H-imidazole-5-carbonitrile]	< 1	< 1
Cc1cnc(Nc2ccc(N3CCOCC3)cc2)nc1Sc1ccc(CC#N)cc1 [Compound 222, 2-(4-(5-methyl-2-(4-morpholinophenylao)pyrimidin-4-ylthio)phenyl)acetonitrile]	> 20	> 20
N#Cc1c(N)ncn1Cc1cccc(Sc2ccnc(Nc3ccc(N4CCOCC4)cc3)n2)c1 [Compound 199, 4-ao-1-(3-(2-(4-morpholinophenylao)pyrimidin-4-ylthio)benzyl)-1H-imiazole-5-carbonitrile]	< 20	< 20
CON(C)C(=O)c1ccc(Sc2nc(Nc3ccc(N4CCOCC4)cc3)ncc2C)cc1 [Compound 218, N-methoxy-N-methyl-4-(5-methyl-2-(4-morpholinophenylao)pyrimidin-4-ylthio)benzamide]	< 20	> 20
Cc1cnc(Nc2ccc(N3CCOCC3)cc2)nc1Sc1ccc(N2C(=O)COCC2=O)cc1 [Compound 190, 4-(4-(5-methyl-2-(4-morpholinophenylao)pyrimidin-4-ylthio)phenyl)morpholine-3,5-dione]	> 20	> 20
Cc1cnc(Nc2ccc(N3CCOCC3)cc2)nc1Sc1ccc(C(C#N)N2CCN(C)CC2)cc1 (stereo not drawn) [Compound 225, 2-(4-(5-methyl-2-(4-morpholinophenylao)pyrimidin-4-ylthio)phenyl)-2-(4-methylpiperazin-1-yl)acetonitrile]	< 5	< 5
C=CC(=O)Nc1cccc(Nc2nccc(SC)n2)c1 [Compound 7, N-(3-(4-(methylthio)pyrimidin-2-ylao)phenyl)acrylamide]	< 5	< 20
Cc1cnc(Nc2ccc(O)cc2)nc1Sc1ccc(N)cc1 [Compound 191, 4-(4-(4-aophenylthio)-5-methylpyrimidin-2-ylao)phenol]	< 5	< 5
Cc1cnc(Nc2ccc(N3CCOCC3)cc2)nc1Sc1ccc(NC2CCOC2=O)cc1 (stereo not drawn) [Compound 228, 3-(4-(5-methyl-2-(4-morpholinophenylao)pyrimidin-4-ylthio)phenylao)dihydrofuran-2(3H)-one]	> 20	> 20
